Experimental data published in US10934326B2, “Peripheral modifications on pocket-redesigned vancomycin analogs synergistically improve antimicrobial potency and durability” (priority 2016, dated 2021).
≈ marks a conversion by molar mass, not a printed value. Entries after “also recorded” stand apart in the source; their conditions may differ. Like-named read-outs stand apart in the source and are kept apart here.

Experiments:
[1] = test system: VanA VRE (E. faecalis BM 4166 and E. faecium ATCC BAA-2317); test: Cell wall biosynthesis inhibition assay (accumulation of UDPMurNAc-pp 19); assay type: cell-based, Enterococcus faecalis; Enterococcus faecium; conditions: 35 μg/mL, tetracycline pretreated VanA VRE, 30 minutes, 37° C.
Source text: The inhibition of bacterial cell wall synthesis was established in an assay that quantitates the accumulation of the peptidoglycan precursor UDP-N-acetyl-muramyl-depsipentapeptide (Compound 19, UDPMurNAc-pp), resulting from inhibited cell wall incorporation following antibiotic treatment. […] This procedure was reduced in scale and modified to enlist reverse-phase HPLC separation, UV detection, and calibration curve determination of the amount of isolated 19, permitting use with limited sample sizes. A larger scale isolation and full characterization of 19 provided the material needed to establish a linear calibration curve.
The bacterial suspension was heated at 100° C. for 15 minutes to release cytosolic 19. The entire supernatant was analyzed by semi-preparative reverse-phase HPLC with a single injection and the amount of 19 was quantitated with use of the calibration curve.
Cultures of vancomycin-resistant Enterococcus faecalis (VanA VRE, BM4166) and Enterococcus faecium (VanA VRE, ATCC BAA-2317) were inoculated and grown in an orbital shaker at 37° C. in 100% brain-heart infusion broth for 12 hours. The above bacterial solution was subjected to a subculture to obtain fresh mid-log phase bacterial cells (total volume of bacterial suspension=5 mL, incubation time=6 hours, OD600=0.6). […] Vancomycin analogues were added and the mixture was incubated at 37° C. for a further 30 minutes.
After the bacteria were harvested (3000 rpm, 4° C., 20 minutes), this bacterial precipitate was washed and resuspended in 5 mM glucose and 5 mM HEPES buffer (500 μL, 1:1, pH=7.2). This bacterial suspension was heated at 100° C. for 15 minutes and centrifuged (13000 rpm, 25° C., 10 minutes). […] [*****Allen et al., Antimicrob. Agents Chemother. 1996, 40(10):2356-2362]; Liu et al., J. Am. Chem. Soc. 2001, 123:9916-9917.] The amount of UDP Mur N-Ac pentapeptide (19) was quantified by use of calibration curves for E. faecalis BM4166, and for E. faecium ATCC BAA-2317 based on the area under the curve (AUC).

[2] = test system: vancomycin-sensitive Staphylococcus aureus (VSSA strain ATCC 25923); conditions: previously reported data; cited from earlier work
[3] = test system: methicillin and oxacillin-resistant Staphylococcus aureus subsp. aureus (MRSA strain ATCC 43300); conditions: previously reported data; cited from earlier work
[4] = test system: vancomycin-resistant Enterococcus faecalis (VanA VRE, BM4166); conditions: BM 4166; previously reported data; cited from earlier work
[5] = test system: Enterococcus faecium (VanA VRE, ATCC BAA-2317); conditions: previously reported data; cited from earlier work
[6] = test system: vancomycin-resistant Enterococcus faecalis (VanB VRE, strain ATCC 51299); conditions: previously reported data; cited from earlier work
[7] = test system: Enterococcus faecium (VanA VRE, ATCC BAA-2317); test: In vitro antimicrobial assay (MIC), VanA E. faecium; assay type: cell-based; conditions: for antibiotic susceptibility profile of the strain: VanA E. faecium ATCC BAA-2317
Source text: (§1) One day before a study was run, fresh cultures of vancomycin-sensitive Staphylococcus aureus (VSSA strain ATCC 25923), methicillin and oxacillin-resistant Staphylococcus aureus subsp. aureus (MRSA strain ATCC 43300), vancomycin-resistant Enterococcus faecalis (VanA VRE, BM4166), Enterococcus faecium (VanA VRE, ATCC BAA-2317), vancomycin-resistant Enterococcus faecalis (VanB VRE, strain ATCC 51299), Escherichia coli (ATCC 25922), Acinetobacter baumannii (ATCC BAA-1710), Pseudomonas aeruginosa (ATCC 15442), Klebsiella pneumoniae (ATCC 700603) were inoculated and grown in an orbital shaker at 37° C. in 100% Mueller-Hinton broth (VSSA, MRSA and VanB VRE), 100% brain-heart infusion broth (VanA VRE, A. baumannii and K. pneumoniae) or 100% Luria broth (E. coli and P. aeruginosa). After 24 hours, the bacterial stock solutions were serially diluted with the culture medium (10% Mueller-Hinton broth for VSSA, MRSA and VanB VRE or 10% brain-heart infusion broth for VanA VRE A. baumannii and K. pneumoniae or 10% Luria Broth for E. coli and P. aeruginosa) to achieve a turbidity equivalent to a 1:100 dilution of a 0.5 M McFarland solution. This diluted bacterial stock solution was then inoculated in a 96-well V-shaped glass coated microtiter plate, supplemented with serial diluted aliquots of the antibiotic solution in DMSO (4 μL), to achieve a total assay volume of 0.1 mL. The plate was then incubated at 37° C. for 18 hours, after which minimal inhibitory concentrations (MICs) were determined by monitoring the cell growth (observed as a pellet) in the wells.
(§2) The lowest concentration of antibiotic (in μg/mL) capable of eliminating cell growth in the wells is the reported MIC value. The reported MIC values for the vancomycin analogues were determined against vancomycin as a standard in the first well.*
(§3) [*Clinical and Laboratory Standards Institute. Methods for Dilution Antimicrobial Susceptibility Tests for Bacteria That Grow Aerobically; Approved Standard, 7th ed.; CLSI document M07-A8; Clinical and Laboratory Standards Institute: Wayne, Pa., 2009.]

[8] = test system: VanA VRE (E. faecalis BM4166 and E. faecium ATCC BAA-2317); test: Resistance development study (serial passaging at 0.5×MIC); assay type: cell-based, Enterococcus faecalis; Enterococcus faecium; conditions: 0.5×MIC serial exposure, MICs monitored daily
Method: However, an additional and even more important feature of the expression of multiple independent mechanisms of action is a mechanism's impact on the rate at which bacterial resistance may emerge.
The MICs of the vancomycin analogues against vancomycin-resistant Enterococcus faecalis (VanA VRE, BM4166) and Enterococcus faecium (VanA VRE, ATCC BAA-2317) were determined. […] A new MIC assay was performed with the same protocol. This process was repeated for 50 passages, and the fold increase in MIC was determined at each passage. [****Pollard et al., J. Antimicrob. Chemother. 2012, 67:2665-2672.]

[9] = test system: vancomycin-resistant Enterococcus faecalis (VanA VRE, BM4166); test: In vitro antimicrobial assay (MIC), VanA E. faecalis; assay type: cell-based
Source text: as §1, §2, §3

[10] = test system: VanA VRE (E. faecalis BM 4166 and E. faecium ATCC BAA-2317); test: Antimicrobial activity against VanA VRE (both strains); assay type: cell-based, Enterococcus faecalis; Enterococcus faecium
Source text: as §1, §2

[11] = test system: VanA VRE (E. faecalis BM 4166 and E. faecium ATCC BAA-2317); test: Cell wall permeability assay (propidium iodide uptake); assay type: cell-based, Enterococcus faecalis; Enterococcus faecium; conditions: 10 μM compound
Source text: The effect of the compounds on cell membrane permeability was examined by measuring cytoplasmic membrane uptake of the fluorescent probe propidium iodide in the same VanA vancomycin-resistant E. faecalis (BM 4166) and E. faecium (ATCC BAA-2317) strains. This fluorescent probe only enters cells with permeabilized cell membranes and is detected by the emission of fluorescence upon intracellular nucleic acid binding [Boulos et al., J Microbiol Methods 1999, 37(1):77-86].
Fresh, mid-log phase VanA VRE in pH 7.2 buffer at 25° C. were preincubated with propidium iodide (10 μM) for 5 minutes before the test compounds were added, monitoring the fluorescence emission at 617 nm (excitation at 535 nm) over time, both pre (5 minutes) and post (15 minutes) compound addition. Rapid and sustained increases in fluorescence intensity are observed immediately upon addition of test compounds that induce bacterial cell membrane permeability.
One day before a study was run, cultures of vancomycin-resistant Enterococcus faecalis (VanA VRE, BM4166) and Enterococcus faecium (VanA VRE, ATCC BAA-2317), were inoculated and grown in an orbital shaker at 37° C. in 100% brain-heart infusion broth for 12 hours. The above bacterial solution was subjected to a subculture to obtain fresh mid-log phase bacterial cells (total volume of bacterial suspension=7 mL, incubation time=6 hours, OD600=0.6). After the cultured bacteria were harvested (3000 rpm, 4° C., 20 minutes), the white bacterial precipitate was washed and resuspended in 5 mM glucose and 5 mM HEPES buffer (1:1, 500 μL, pH=7.2).
This bacterial suspension (130 μL) was charged into a 96-well black plate with a clear bottom (Corning 3650). The propidium iodide dye (10 μL, 150 μM DMSO solution) was added to the above suspension and the fluorescence was monitored at 25° C. for 5 minutes at 30 second intervals using a microplate reader (Molecular Devices®, Max Gemini EX) at an excitation wavelength of 535 nm and an emission wavelength of 617 nm. The test compound (150 μM, 10 μL) was added to the cell suspension and the fluorescence was monitored at 25° C. for an additional 15 minutes.

Structure (SMILES) | inhibition of bacterial cell wall synthesis (accumulation of 19) [1] | Antimicrobial Activity, MIC, sensitive S. aureus [2] [µg/mL] | Antimicrobial Activity, MIC, MRSA S. aureus [3] [µg/mL] | Antimicrobial Activity, MIC, VanA E. faecalis [4] [µg/mL] | Antimicrobial Activity, MIC, VanA E. faecium [5] [µg/mL] | Antimicrobial Activity, MIC, VanB E. faecalis [6] [µg/mL] | antibiotic susceptibility profile of the strain [7] | emergence of resistance on serial passaging [8] | further results
CN[C@H](CC(C)C)C(=O)N[C@H]1C(=O)N[C@@H](CC(N)=O)C(=O)N[C@H]2C(=S)N[C@@H]3C(=O)N[C@H](C(=O)N[C@H](C(=O)O)c4cc(O)cc(O)c4-c4cc3ccc4O)[C@H](O)c3ccc(c(Cl)c3)Oc3cc2cc(c3OC2OC(CO)C(O)[C@H](O)[C@@H]2O[C@H]2CC(C)(N)[C@H](O)[C@H](C)O2)Oc2ccc(cc2Cl)[C@H]1O (some centres unmarked) [Compound 2] | do not effectively inhibit bacterial cell wall synthesis | >32 | >32 | >32 | >32 | >32 |  |  | 
CN(C)c1cc(NC(=O)CNC(C)(C)C)c(O)c2c1C[C@H]1C[C@H]3[C@H](N(C)C)C(O)=C(C(N)=O)C(=O)[C@@]3(O)C(O)=C1C2=O [tigecycline] |  |  |  |  |  |  | sensitive | arises much faster and is much more pronounced; also recorded: arise much faster and was more pronounced | 
CC(=O)NC[C@H]1CN(c2ccc(N3CCOCC3)c(F)c2)C(=O)O1 [linezolid] |  |  |  |  |  |  | insensitive | arises much faster and is much more pronounced; also recorded: arise much faster and was more pronounced | 
CN[C@H](CC(C)C)C(=O)N[C@H]1C(=O)N[C@@H](CC(N)=O)C(=O)N[C@H]2C(=N)N[C@@H]3C(=O)N[C@H](C(=O)N[C@H](C(=O)O)c4cc(O)cc(O)c4-c4cc3ccc4O)[C@H](O)c3ccc(c(Cl)c3)Oc3cc2cc(c3OC2OC(CO)C(O)[C@H](O)[C@@H]2O[C@H]2CC(C)(NCc3ccc(-c4ccc(Cl)cc4)cc3)[C@H](O)[C@H](C)O2)Oc2ccc(cc2Cl)[C@H]1O (some centres unmarked) [Compound 7] |  | 0.03 | 0.06 | 0.005 | 0.005 | 0.06 |  |  | 
CCCCCCCCCCCCCC[N+](C)(C)CCCNC(=O)[C@H]1NC(=O)[C@H]2NC(=O)[C@@H](NC[C@@H]3NC(=O)[C@H](CC(N)=O)NC(=O)[C@H](NC(=O)[C@@H](CC(C)C)NC)[C@H](O)c4ccc(c(Cl)c4)Oc4cc3cc(c4OC3OC(CO)C(O)[C@H](O)[C@@H]3O[C@H]3CC(C)(N)[C@H](O)[C@H](C)O3)Oc3ccc(cc3Cl)[C@H]2O)c2ccc(O)c(c2)-c2c(O)cc(O)cc21 (some centres unmarked) [Compound 13] | equally active |  |  |  |  |  |  |  | Antimicrobial Activity, MIC, VanA E. faecalis ([9]; BM 4166): 0.16 µg/mL; Antimicrobial Activity, MIC, VanA E. faecium ([7]; ATCC BAA-2317): 0.16 µg/mL; MIC against VanA VRE ([10]; both VanA VRE strains): 0.16 µg/mL; fold more potent than pocket analog 4 against VanA VRE ([10]; relative to Compound 4): 200 fold; fold more potent than C14-vancomycin (12) against VanA VRE ([10]; relative to Compound 12): > 10 fold; fold more potent than vancomycin against VanA VRE ([10]; relative to vancomycin (1)): > 1000 fold; induced cell membrane permeability (propidium uptake) [11]: produced pronounced cell membrane permeability immediately upon addition
CNC(CC(C)C)C(=O)NC1C(=O)NC(CC(N)=O)C(=O)NC2CNC3C(=O)NC(C(=O)NC(C(=O)O)c4cc(O)cc(O)c4-c4cc3ccc4O)C(O)c3ccc(c(Cl)c3)Oc3cc2cc(c3OC2OC(CO)C(O)C(O)C2OC2CC(C)(N)C(O)C(C)O2)Oc2ccc(cc2Cl)[C@@H]1O (some centres unmarked) [Compound 4, [Ψ[CH2NH] Tpg^4]vancomycin] | inhibits bacterial cell wall biosynthesis; also recorded: equally active |  |  | 31 | 31 |  |  |  | MIC ([9]; Enterococcus faecalis, VRE, read-out: Antimicrobial Activity, MIC, VanA E. faecalis): 31 µg/mL (≈ 21.6 µM); MIC ([7]; Enterococcus faecium, read-out: Antimicrobial Activity, MIC, VanA E. faecium): 31 µg/mL (≈ 21.6 µM); MIC ([10]; Enterococcus, read-out: MIC against VanA VRE): 31 µg/mL (≈ 21.6 µM)
